# Assay results published in patent US12059422B2 (MEI Pharma, Inc., priority 2011, dated 2024).
# How the values were obtained:
# [1] = target: T1, PI3K alpha (Homo sapiens, UniProt P42336); experiment: Luciferase-based luminescence assay (KinaseGlo), PI3K alpha enzymatic activity; type: biochemical; settings: inhibition of enzymatic activity, 25 μM ATP, read-out: IC50 p110α
# T1 construct: purchased Invitrogen Corp., Carlsbad, CA, USA
# Procedure: PI3K catalyzes the conversion of phosphatidylinositol-4,5-bisphosphate (PIP2) and ATP to phosphatidylinositol-3,4,5-trisphosphate (PIP3) and ADP. For all assays, the reaction buffer comprised 50 mM HEPES, pH 7.5, 3 mM MgCl2, 1 mM EGTA, 100 mM NaCl, 0.03% CHAPS and 2 mM DTT. Compounds for testing were dissolved and serially diluted in 100% DMSO (total of 10 concentrations), then diluted 1:25 in reaction buffer.
# PI3K alpha and PI3K delta enzymatic activity was determined by measuring the amount of ATP consumed following the kinase reaction using a luciferase-based luminescence assay (KinaseGlo®, Promega Corp., Madison, WI, USA). PI3K enzyme solutions were prepared by diluting PI3K alpha (Invitrogen Corp., Carlsbad, CA, USA) or PI3K delta (Millipore, Billerica, MA, USA) in reaction buffer, to 4× the final assay concentration (final concentrations of enzymes were 1.65 nM and 6.86 nM for PI3K alpha and PI3K delta, respectively). A substrate solution was prepared by mixing PIP2 and ATP in reaction buffer at 2× the final assay concentration (final concentrations were 50 μM and 25 μM for PIP2 and ATP respectively). 2.5 μL each of the compound and kinase mixtures were added to individual wells of white low volume 384-well assay plates and mixed by shaking. The reactions were started by adding 5 μL of substrate mixture per well and shaking. The assay plates were covered and reactions were allowed to proceed for 1 hour (PI3K alpha) or 2 hours (PI3K delta), after which 10 μL of Kinase Glo® reagent was added. The plates were briefly centrifuged and incubated for 10 minutes, after which luminescence was measured using a FlexStation plate reader (Molecular Devices, Sunnyvale, CA, USA). IC50 values were determined by curve fitting using Graphpad Prism software (Graphpad Software, La Jolla, CA, USA).
# [2] = target: PI3Kα (Homo sapiens, UniProt P42336); experiment: ELISA assay for PI3Kα: in-cell ELISA, phosphorylation of AKT (Thr308) in MDA-MB-453 cells; type: cell-based; settings: cellular, pAKT (Thr308), IGF-1 stimulation, read-out: IC50 p110α
# Procedure: PI3K alpha (PI3Kα) activity was determined by measuring the phosphorylation of AKT (Thr308) using an in-cell ELISA assay. MDA-MB-453 (breast carcinoma) cells were obtained from ATCC (ATCC #HTB-131). Growth medium was DMEM (CellGro #CV-10-013-CV) supplemented with 10% fetal bovine serum, 100 IU/mL penicillin, 100 μg/mL streptomycin, and 1×MEM non-essential amino acids. Phosphate buffered saline (PBS) contained 2.7 M NaCl, 54 mM KCl, 86 mM […] (dibasic, anhydrous), and 28 mM […] (monobasic, anhydrous) at pH 7.2. Stimulation mixture (10×) was 1000 ng/mL LONG® R^3 human IGF-1 (Sigma #I1271) diluted in serum-free DMEM medium (CellGro #CV-10-013-CV). Compounds for testing were dissolved and serially diluted in 100% DMSO (total of 10 concentrations), then diluted in serum-free DMEM to 2× final assay concentration. Fixative solution (2×) was 8% formaldehyde (Amresco #M134) diluted in PBS. Permeabilization solution was PBS supplemented with 0.1% Triton X-100. Blocking buffer was obtained from LiCor (LiCor #927-40000). Wash buffer was PBS supplemented with 0.1% Tween-20. Primary antibody solution was rabbit anti-pAKT^T308 monoclonal antibody (Cell Signaling #2965) and mouse anti-total S6 (Santa Cruz #74459) diluted 1:500 and 1:2000, respectively, in the blocking buffer. Secondary antibody solution was IRDye 800CW-conjugated goat anti-rabbit IgG (LiCor #926-32211) and IRDye 680LT-conjugated goat anti-mouse IgG (LiCor #926-68020) diluted 1:1000 and 1:2000, respectively, in the blocking buffer.
# MDA-MB-453 cells were subcultured in growth medium and seeded into flat, clear bottom, 96-well plates (Corning #3904) at 40000 cells/well, then incubated overnight in a 5% CO2 incubator at 37° C. Growth medium in plates was replaced with 100 μL/well serum-free DMEM and incubated overnight at 37° C. in a 5% CO2 incubator. Fresh serum-free DMEM (50 μL/well) was added to plates. Compound treatment was performed by adding 50 μL/well of 2× compound mixture to plates and incubating for 1 hr at 37° C. and 5% CO2, after which 11 μL/well of 10× stimulation mixture was added and plates were incubated for 10 min at 37° C. and 5% CO2. Fixation was performed by adding 110 μL/well of 2× fixative solution to the plates and incubating for 20 min at room temperature. Permeabilization was performed by replacing fixation solution with 150 μL/well permeabilization solution and incubating for 10 min at room temperature. Permeabilization was repeated (for a total of 2 times). Permeabilization solution was replaced with 100 μL/well blocking buffer and plates were incubated for 1 hour at room temperature, after which 100 μL/well of primary antibody solution was added and plates were incubated overnight at 4° C. Plates were washed with wash buffer, after which 100 μL/well of secondary antibody solution was added to the plates and incubated in the dark for 1 hr at room temperature. Plates were washed with wash buffer, followed by a wash with PBS. After completely removing PBS, plates were scanned on the Licor Odyssey Imager. Images were quantified using Licor Odyssey application software. IC50 values were determined by curve fitting using a Collaborative Drug Discovery database (www.collaborativedrug.com).
# Sequence of PI3Kα (P27986 2-724): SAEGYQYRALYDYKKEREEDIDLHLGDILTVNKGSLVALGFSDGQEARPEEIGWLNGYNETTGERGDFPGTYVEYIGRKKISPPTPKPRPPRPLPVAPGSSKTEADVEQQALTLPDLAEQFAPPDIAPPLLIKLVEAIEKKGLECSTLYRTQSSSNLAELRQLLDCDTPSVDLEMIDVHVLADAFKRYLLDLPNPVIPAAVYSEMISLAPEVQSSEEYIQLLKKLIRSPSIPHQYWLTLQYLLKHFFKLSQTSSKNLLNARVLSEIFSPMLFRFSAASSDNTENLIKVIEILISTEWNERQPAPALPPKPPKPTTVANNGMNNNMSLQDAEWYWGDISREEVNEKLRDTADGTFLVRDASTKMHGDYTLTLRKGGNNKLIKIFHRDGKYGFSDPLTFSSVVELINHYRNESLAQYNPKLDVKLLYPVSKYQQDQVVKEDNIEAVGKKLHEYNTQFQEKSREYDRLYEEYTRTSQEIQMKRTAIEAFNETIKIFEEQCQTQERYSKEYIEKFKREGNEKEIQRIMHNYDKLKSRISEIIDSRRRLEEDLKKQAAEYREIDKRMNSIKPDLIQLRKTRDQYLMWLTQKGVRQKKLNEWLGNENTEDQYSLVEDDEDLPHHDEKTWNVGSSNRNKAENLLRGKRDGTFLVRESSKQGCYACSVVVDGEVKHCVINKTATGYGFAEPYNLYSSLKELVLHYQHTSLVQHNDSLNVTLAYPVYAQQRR
# Sequence of PI3Kα (P42336 whole entry): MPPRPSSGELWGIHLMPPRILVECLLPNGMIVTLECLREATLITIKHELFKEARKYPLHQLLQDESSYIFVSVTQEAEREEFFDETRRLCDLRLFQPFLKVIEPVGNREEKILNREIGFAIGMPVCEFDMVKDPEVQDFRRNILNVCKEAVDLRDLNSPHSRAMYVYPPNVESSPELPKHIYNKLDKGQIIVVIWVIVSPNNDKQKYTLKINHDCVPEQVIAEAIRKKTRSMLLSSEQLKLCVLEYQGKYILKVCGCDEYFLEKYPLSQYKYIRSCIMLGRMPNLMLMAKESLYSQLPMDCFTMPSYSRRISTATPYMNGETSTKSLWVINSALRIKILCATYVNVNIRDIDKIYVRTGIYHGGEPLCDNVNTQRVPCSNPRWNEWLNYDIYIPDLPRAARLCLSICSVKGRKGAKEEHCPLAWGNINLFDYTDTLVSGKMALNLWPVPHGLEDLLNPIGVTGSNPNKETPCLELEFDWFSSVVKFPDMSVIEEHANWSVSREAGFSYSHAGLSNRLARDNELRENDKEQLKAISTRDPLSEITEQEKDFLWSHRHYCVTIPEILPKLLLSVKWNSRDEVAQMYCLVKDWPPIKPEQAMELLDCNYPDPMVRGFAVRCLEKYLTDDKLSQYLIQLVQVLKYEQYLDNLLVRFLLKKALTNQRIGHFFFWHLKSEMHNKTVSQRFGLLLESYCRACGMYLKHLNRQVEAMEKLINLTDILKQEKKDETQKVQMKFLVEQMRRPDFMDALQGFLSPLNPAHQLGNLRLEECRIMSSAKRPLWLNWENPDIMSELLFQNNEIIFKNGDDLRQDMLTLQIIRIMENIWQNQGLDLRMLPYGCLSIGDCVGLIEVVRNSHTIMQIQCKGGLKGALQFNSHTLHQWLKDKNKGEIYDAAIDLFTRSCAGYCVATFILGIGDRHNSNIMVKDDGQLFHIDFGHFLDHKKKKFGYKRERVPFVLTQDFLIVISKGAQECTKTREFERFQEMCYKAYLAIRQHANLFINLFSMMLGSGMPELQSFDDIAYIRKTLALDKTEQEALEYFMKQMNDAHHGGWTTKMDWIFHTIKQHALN
# T1 sequence (P42336 whole entry, species assumed): as the sequence (P42336 whole entry) above
# T1 sequence (P27986 whole entry partner, species assumed): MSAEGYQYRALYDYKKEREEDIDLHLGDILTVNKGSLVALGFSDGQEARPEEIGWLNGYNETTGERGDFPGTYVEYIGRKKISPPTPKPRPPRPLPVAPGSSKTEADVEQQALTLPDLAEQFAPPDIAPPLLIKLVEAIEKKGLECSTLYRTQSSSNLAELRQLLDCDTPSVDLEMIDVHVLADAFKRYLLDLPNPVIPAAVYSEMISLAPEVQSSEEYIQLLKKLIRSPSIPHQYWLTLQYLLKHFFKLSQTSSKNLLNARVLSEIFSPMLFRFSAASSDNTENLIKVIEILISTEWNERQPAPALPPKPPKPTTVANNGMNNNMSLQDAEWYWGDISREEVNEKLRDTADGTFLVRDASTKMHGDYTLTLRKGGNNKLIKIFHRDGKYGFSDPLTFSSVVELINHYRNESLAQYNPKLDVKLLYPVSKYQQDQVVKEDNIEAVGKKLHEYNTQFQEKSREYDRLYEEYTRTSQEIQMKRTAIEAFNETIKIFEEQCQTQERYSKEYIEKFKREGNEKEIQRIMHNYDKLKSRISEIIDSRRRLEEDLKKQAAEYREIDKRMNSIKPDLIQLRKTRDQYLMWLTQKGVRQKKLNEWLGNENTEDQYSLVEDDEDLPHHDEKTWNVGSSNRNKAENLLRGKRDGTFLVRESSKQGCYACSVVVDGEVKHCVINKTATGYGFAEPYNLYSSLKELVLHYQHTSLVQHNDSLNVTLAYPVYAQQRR
Structure (SMILES),IC50 [1],IC50 [2]
"CC(C)(Cc1ccccc1F)Nc1nc(N2CCOCC2)nc(-n2c(C(F)F)nc3ccccc32)n1 [Compound A15, 4-(2-(difluoromethyl)-1H-benzo[d]imidazol-1-yl)-N-(1-(2-fluorophenyl)-2-methylpropan-2-yl)-6-morpholino-1,3,5-triazin-2-amine]",> 500 nM,> 500 nM
"CC(C)(Cc1ccccc1Cl)Nc1nc(N2CCOCC2)nc(-n2c(C(F)F)nc3ccccc32)n1 [Compound A16, 4-(2-(difluoromethyl)-1H-benzo[d]imidazol-1-yl)-N-(1-(2-chlorophenyl)-2-methylpropan-2-yl)-6-morpholino-1,3,5-triazin-2-amine]",> 500 nM,> 500 nM
"CC(C)(Cc1cccc2ccccc12)Nc1nc(N2CCOCC2)nc(-n2c(C(F)F)nc3ccccc32)n1 [Compound A27, 4-(2-(difluoromethyl)-1H-benzo[d]imidazol-1-yl)-N-(2-methyl-1-(naphthalen-1-yl)propan-2-yl)-6-morpholino-1,3,5-triazin-2-amine]",> 500 nM,
"CC(C)(Cc1ccccc1-c1ccncc1)Nc1nc(N2CCOCC2)nc(-n2c(C(F)F)nc3ccccc32)n1 [Compound A33, 4-(2-(difluoromethyl)-1H-benzo[d]imidazol-1-yl)-N-(2-methyl-1-(2-(pyridin-4-yl)phenyl)propan-2-yl)-6-morpholino-1,3,5-triazin-2-amine]",200 to 500 nM,
"CN1CCC(c2ccccc2CC(C)(C)Nc2nc(N3CCOCC3)nc(-n3c(C(F)F)nc4ccccc43)n2)CC1 [Compound A35, 4-(2-(difluoromethyl)-1H-benzo[d]imidazol-1-yl)-N-(2-methyl-1-(2-(1-methylpiperidin-4-yl)phenyl)propan-2-yl)-6-morpholino-1,3,5-triazin-2-amine]",> 500 nM,> 500 nM
"CC(C)(Cc1ccccc1-c1cccnc1)Nc1nc(N2CCOCC2)nc(-n2c(C(F)F)nc3ccccc32)n1 [Compound A40, 4-(2-(difluoromethyl)-1H-benzo[d]imidazol-1-yl)-N-(2-methyl-1-(2-(pyridin-3-yl)phenyl)propan-2-yl)-6-morpholino-1,3,5-triazin-2-amine]",200 to 500 nM,> 500 nM
"COc1cc(-c2ccccc2CC(C)(C)Nc2nc(N3CCOCC3)nc(-n3c(C(F)F)nc4ccccc43)n2)ccn1 [Compound A41, 4-(2-(difluoromethyl)-1H-benzo[d]imidazol-1-yl)-N-(1-(2-(2-methoxypyridin-4-yl)phenyl)-2-methylpropan-2-yl)-6-morpholino-1,3,5-triazin-2-amine]",> 500 nM,> 500 nM
"Cc1cc(-c2ccccc2CC(C)(C)Nc2nc(N3CCOCC3)nc(-n3c(C(F)F)nc4ccccc43)n2)ccn1 [Compound A43, 4-(2-(difluoromethyl)-1H-benzo[d]imidazol-1-yl)-N-(2-methyl-1-(2-(2-methylpyridin-4-yl)phenyl)propan-2-yl)-6-morpholino-1,3,5-triazin-2-amine]",200 to 500 nM,> 500 nM
"CC(C)(Cc1ccccc1-c1cn[nH]c1)Nc1nc(N2CCOCC2)nc(-n2c(C(F)F)nc3ccccc32)n1 [Compound A44, 4-(2-(difluoromethyl)-1H-benzo[d]imidazol-1-yl)-N-(1-(2-(1H-pyrazol-4-yl)phenyl)-2-methylpropan-2-yl)-6-morpholino-1,3,5-triazin-2-amine]",200 to 500 nM,> 500 nM
"Cn1cc(-c2ccccc2CC(C)(C)Nc2nc(N3CCOCC3)nc(-n3c(C(F)F)nc4ccccc43)n2)cn1 [Compound A45, 4-(2-(difluoromethyl)-1H-benzo[d]imidazol-1-yl)-N-(2-methyl-1-(2-(1-methyl-1H-pyrazol-4-yl)phenyl)propan-2-yl)-6-morpholino-1,3,5-triazin-2-amine]",100 to 200 nM,200 to 500 nM
"Cn1nccc1-c1ccccc1CC(C)(C)Nc1nc(N2CCOCC2)nc(-n2c(C(F)F)nc3ccccc32)n1 [Compound A46, 4-(2-(difluoromethyl)-1H-benzo[d]imidazol-1-yl)-N-(2-methyl-1-(2-(1-methyl-1H-pyrazol-5-yl)phenyl)propan-2-yl)-6-morpholino-1,3,5-triazin-2-amine]",200 to 500 nM,> 500 nM
"CN1CCC(c2ccccc2CC(C)(C)Nc2nc(N3CCOCC3)nc(-n3c(C(F)F)nc4ccccc43)n2)C1 (centres unmarked) [Compound A75, 4-(2-(difluoromethyl)-1H-benzo[d]imidazol-1-yl)-N-(2-methyl-1-(2-(1-methylpyrrolidin-3-yl)phenyl)propan-2-yl)-6-morpholino-1,3,5-triazin-2-amine]",,> 500 nM

# The remaining lines, values ahead:
IC50 [1],IC50 [2],Structure (SMILES)
> 500 nM,> 500 nM,"CC(C)(Cc1ccccc1)Nc1nc(N2CCOCC2)nc(-n2c(C(F)F)nc3ccccc32)n1 [Compound A14, 4-(2-(difluoromethyl)-1H-benzo[d]imidazol-1-yl)-N-(2-methyl-1-phenylpropan-2-yl)-6-morpholino-1,3,5-triazin-2-amine]"
> 500 nM,> 500 nM,"Cc1ccccc1CC(C)(C)Nc1nc(N2CCOCC2)nc(-n2c(C(F)F)nc3ccccc32)n1 [Compound A18, 4-(2-(difluoromethyl)-1H-benzo[d]imidazol-1-yl)-N-(2-methyl-1-(o-tolyl)propan-2-yl)-6-morpholino-1,3,5-triazin-2-amine]"
> 500 nM,,"COc1ccccc1CC(C)(C)Nc1nc(N2CCOCC2)nc(-n2c(C(F)F)nc3ccccc32)n1 [Compound A19, 4-(2-(difluoromethyl)-1H-benzo[d]imidazol-1-yl)-N-(1-(2-methoxyphenyl)-2-methylpropan-2-yl)-6-morpholino-1,3,5-triazin-2-amine]"
> 500 nM,> 500 nM,"COc1cccc(CC(C)(C)Nc2nc(N3CCOCC3)nc(-n3c(C(F)F)nc4ccccc43)n2)c1 [Compound A21, 4-(2-(difluoromethyl)-1H-benzo[d]imidazol-1-yl)-N-(1-(3-methoxyphenyl)-2-methylpropan-2-yl)-6-morpholino-1,3,5-triazin-2-amine]"
> 500 nM,> 500 nM,"CC(C)(Cc1ccc(F)cc1)Nc1nc(N2CCOCC2)nc(-n2c(C(F)F)nc3ccccc32)n1 [Compound A22, 4-(2-(difluoromethyl)-1H-benzo[d]imidazol-1-yl)-N-(1-(4-fluorophenyl)-2-methylpropan-2-yl)-6-morpholino-1,3,5-triazin-2-amine]"
> 500 nM,> 500 nM,"CC(C)(Cc1cccc(F)c1)Nc1nc(N2CCOCC2)nc(-n2c(C(F)F)nc3ccccc32)n1 [Compound A39, 4-(2-(difluoromethyl)-1H-benzo[d]imidazol-1-yl)-N-(1-(3-fluorophenyl)-2-methylpropan-2-yl)-6-morpholino-1,3,5-triazin-2-amine]"
